The data set is described as follows: Storage stability of the product at 40° ± 2° C. for 90 days (drop in assay). The class given is physicochemical. The note with it: for Storage Stability: assay after storage: after 90 days at 40° ± 2° C.; for Storage Stability: assay at start: before storage at 40° ± 2° C.; for storage stability (statement in words): product obtained by the process of the invention.

Consider two compounds from US20040132996A1, “Method for preparation of ceftiofur and salts thereof” (LUPIN LIMITED, priority 2002, published 2004).

Consider `CO/N=C(\C(=O)N[C@@H]1C(=O)N2C(C(=O)[O-])=C(CSC(=O)c3ccco3)CS[C@H]12)c1csc(N)n1.[Na+]` [ceftiofur sodium (Ib)], for which the “Storage Stability: assay after storage” value came to 87%, the “Storage Stability: assay at start” value came out at 94% and the “storage stability (statement in words)” value is on record as “high storage stability”.
On to `CO/N=C(\C(=O)N[C@@H]1C(=O)N2C(C(=O)O)=C(CSC(=O)c3ccco3)CS[C@H]12)c1csc(N)n1` [ceftiofur (Ia)], for which the “Storage Stability: assay after storage” value stood at 92%, the “Storage Stability: assay at start” value is given as 97% and the “storage stability (statement in words)” value is recorded as “high storage stability”. In addition, where the note is “90 days at 40° ± 2° C.”, the “Storage Stability” value is “Stable for 90 days at 40° ± 2 °C with a”.
